From patent publication US20250171438A1 (Agios Pharmaceuticals, Inc., priority 2022, published 2025) come the findings set out here.

The assay deals with T1, human PAH with the R408W mutation (Homo sapiens, UniProt P00439, R408W).
T1 construct: expressed in transfected cells
T1 sequence (P00439 1-452 R408W): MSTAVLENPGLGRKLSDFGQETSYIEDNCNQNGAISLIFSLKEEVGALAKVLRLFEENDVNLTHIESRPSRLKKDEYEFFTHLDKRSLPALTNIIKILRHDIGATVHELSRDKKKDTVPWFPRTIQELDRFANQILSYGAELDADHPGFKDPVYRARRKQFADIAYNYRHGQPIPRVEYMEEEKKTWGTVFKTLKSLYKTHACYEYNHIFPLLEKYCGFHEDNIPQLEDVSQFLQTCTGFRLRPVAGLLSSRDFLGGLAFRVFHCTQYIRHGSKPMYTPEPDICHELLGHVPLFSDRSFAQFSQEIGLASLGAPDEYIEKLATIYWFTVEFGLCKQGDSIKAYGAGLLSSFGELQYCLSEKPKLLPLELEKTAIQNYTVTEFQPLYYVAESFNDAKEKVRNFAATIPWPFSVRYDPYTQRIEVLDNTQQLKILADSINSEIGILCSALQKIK
The experiment in a line: Cell Based Phenylalanine Flux Assay. The note with it: A375 cells expressing human R408W PAH; 24 hrs compound incubation; 13C-Tyrosine by LC-MS; average where tested multiple times; read-out: AC50.

In the case of `O=C(c1nnc(-c2ncccc2F)o1)N1CCc2[nH]cnc2[C@@H]1c1nc2ccccc2s1` [Example 1709, (R)-(4-(benzo[d]thiazol-2-yl)-6,7-dihydro-1H-imidazo[4,5-c]pyridin-5(4H)-yl)(5-(3-fluoropyridin-2-yl)-1,3,4-oxadiazol-2-yl)methanone], the AC50 was less than 500 nM.
As for `O=C(c1nnc(-c2ncccc2F)o1)N1CCc2[nH]cnc2[C@H]1c1nc2ccccc2s1` [Example 1710], the half-maximal activity concentration (AC50) lay within 1000 to 5000 nM.
Regarding `O=C(c1nnc(-c2ccc(F)cn2)o1)N1CCc2[nH]cnc2[C@H]1c1nc2c(F)cccc2s1` [Example 1711, (S)-(4-(4-fluorobenzo[d]thiazol-2-yl)-6,7-dihydro-1H-imidazo[4,5-c]pyridin-5(4H)-yl)(5-(5-fluoropyridin-2-yl)-1,3,4-oxadiazol-2-yl)methanone], the AC50 was in the range of 1000 to 5000 nM.
Regarding `O=C(c1nnc(-c2ccc(F)cn2)o1)N1CCc2[nH]cnc2[C@@H]1c1nc2c(F)cccc2s1` [Example 1712, (R)-(4-(4-fluorobenzo[d]thiazol-2-yl)-6,7-dihydro-1H-imidazo[4,5-c]pyridin-5(4H)-yl)(5-(5-fluoropyridin-2-yl)-1,3,4-oxadiazol-2-yl)methanone], the half-maximal activity concentration (AC50) is less than 500 nM.
Regarding `N#Cc1nc(-c2ccccn2)oc1C(=O)N1CCc2[nH]cnc2[C@@H]1c1nc2ccccc2s1` [Example 1713, (R)-5-(4-(benzo[d]thiazol-2-yl)-4,5,6,7-tetrahydro-1H-imidazo[4,5-c]pyridine-5-carbonyl)-2-(pyridin-2-yl)oxazole-4-carbonitrile], the half-maximal activity concentration (AC50) is greater than 5000 nM.
The figure for `N#Cc1nc(-c2ccccn2)oc1C(=O)N1CCc2[nH]cnc2[C@H]1c1nc2ccccc2s1` [Example 1714, (S)-5-(4-(benzo[d]thiazol-2-yl)-4,5,6,7-tetrahydro-1H-imidazo[4,5-c]pyridine-5-carbonyl)-2-(pyridin-2-yl)oxazole-4-carbonitrile] is less than 500 nM.
`O=C(c1oc(NC2CC2)nc1C(F)F)N1CCc2[nH]cnc2[C@H]1c1nc2ccccc2s1` [Example 1715]: the AC50 is less than 500 nM.
In the case of `O=C(c1oc(NC2CC2)nc1C(F)F)N1CCc2[nH]cnc2[C@@H]1c1nc2ccccc2s1` [Example 1716, (R)-(4-(benzo[d]thiazol-2-yl)-6,7-dihydro-1H-imidazo[4,5-c]pyridin-5(4H)-yl)(2-(cyclopropylamino)-4-(difluoromethyl)oxazol-5-yl)methanone] it was 1000 to 5000 nM; in that of `O=C(c1nnc(-c2ccccn2)o1)N1CCc2[nH]cnc2[C@@H]1c1nc2cccc(F)c2s1` [Example 1717, (R)-(4-(7-fluorobenzo[d]thiazol-2-yl)-6,7-dihydro-1H-imidazo[4,5-c]pyridin-5(4H)-yl)(5-(pyridin-2-yl)-1,3,4-oxadiazol-2-yl)methanone], 500 to 1000 nM.
On to `O=C(c1nnc(-c2ccccn2)o1)N1CCc2[nH]cnc2[C@H]1c1nc2cccc(F)c2s1` [Example 1718, (S)-(4-(7-fluorobenzo[d]thiazol-2-yl)-6,7-dihydro-1H-imidazo[4,5-c]pyridin-5(4H)-yl)(5-(pyridin-2-yl)-1,3,4-oxadiazol-2-yl)methanone], for which the AC50 was less than 500 nM.
`O=C(c1nnc(-c2ccccn2)o1)N1CCc2[nH]cnc2[C@@H]1c1nc2ccc(F)cc2s1` [Example 1719, (R)-(4-(6-fluorobenzo[d]thiazol-2-yl)-6,7-dihydro-1H-imidazo[4,5-c]pyridin-5(4H)-yl)(5-(pyridin-2-yl)-1,3,4-oxadiazol-2-yl)methanone]: the concentration at half-maximal activity (AC50) is 1000 to 5000 nM.
Turning to `O=C(c1nnc(-c2ccccn2)o1)N1CCc2[nH]cnc2[C@H]1c1nc2ccc(F)cc2s1` [Example 1720, (S)-(4-(6-fluorobenzo[d]thiazol-2-yl)-6,7-dihydro-1H-imidazo[4,5-c]pyridin-5(4H)-yl)(5-(pyridin-2-yl)-1,3,4-oxadiazol-2-yl)methanone], the AC50 was less than 500 nM.
Take `Cn1nc(Cl)cc1C(=O)N1CCc2[nH]cnc2[C@H]1c1nc2c(F)cccc2s1` [Example 1721]: the concentration at half-maximal activity (AC50) was less than 500 nM.
Regarding `Cn1nc(Cl)cc1C(=O)N1CCc2[nH]cnc2[C@@H]1c1nc2c(F)cccc2s1` [Example 1722, (R)-(3-chloro-1-methyl-1H-pyrazol-5-yl)(4-(4-fluorobenzo[d]thiazol-2-yl)-6,7-dihydro-1H-imidazo[4,5-c]pyridin-5(4H)-yl)methanone], the half-maximal activity concentration (AC50) was in the range of 1000 to 5000 nM.
On to `COCCn1nccc1C(=O)N1CCc2[nH]cnc2[C@H]1c1nc2c(F)cccc2s1` [Example 1723, (S)-(4-(4-fluorobenzo[d]thiazol-2-yl)-6,7-dihydro-1H-imidazo[4,5-c]pyridin-5(4H)-yl)(1-(2-methoxyethyl)-1H-pyrazol-5-yl)methanone], for which the concentration at half-maximal activity (AC50) was less than 500 nM.
The figure for `COCCn1nccc1C(=O)N1CCc2[nH]cnc2[C@@H]1c1nc2c(F)cccc2s1` [Example 1724, (R)-(4-(4-fluorobenzo[d]thiazol-2-yl)-6,7-dihydro-1H-imidazo[4,5-c]pyridin-5(4H)-yl)(1-(2-methoxyethyl)-1H-pyrazol-5-yl)methanone] is less than 500 nM; for `Cn1nncc1C(=O)N1CCc2[nH]cnc2[C@H]1c1nc2c(F)cccc2s1` [Example 1725] it is 500 to 1000 nM.
In the case of `Cn1nncc1C(=O)N1CCc2[nH]cnc2[C@@H]1c1nc2c(F)cccc2s1` [Example 1726, (R)-(4-(4-fluorobenzo[d]thiazol-2-yl)-6,7-dihydro-1H-imidazo[4,5-c]pyridin-5(4H)-yl)(1-methyl-1H-1,2,3-triazol-5-yl)methanone] it was 1000 to 5000 nM.
As to `Cn1cc(-c2nnc(C(=O)N3CCc4[nH]cnc4[C@@H]3c3nc4c(F)cccc4s3)o2)cn1` [Example 1727, (R)-(4-(4-fluorobenzo[d]thiazol-2-yl)-6,7-dihydro-1H-imidazo[4,5-c]pyridin-5(4H)-yl)(5-(1-methyl-1H-pyrazol-4-yl)-1,3,4-oxadiazol-2-yl)methanone], the half-maximal activity concentration (AC50) was 1000 to 5000 nM.
The figure for `Cn1cc(-c2nnc(C(=O)N3CCc4[nH]cnc4[C@H]3c3nc4c(F)cccc4s3)o2)cn1` [Example 1728, (S)-(4-(4-fluorobenzo[d]thiazol-2-yl)-6,7-dihydro-1H-imidazo[4,5-c]pyridin-5(4H)-yl)(5-(1-methyl-1H-pyrazol-4-yl)-1,3,4-oxadiazol-2-yl)methanone] is less than 500 nM; for `COCCc1nc(C)c(C(=O)N2CCc3[nH]cnc3[C@H]2c2nc3ccccc3s2)o1` [Example 1729, (S)-(4-(benzo[d]thiazol-2-yl)-1,4,6,7-tetrahydro-5H-imidazo[4,5-c]pyridin-5-yl)(2-(2-methoxyethyl)-4-methyloxazol-5-yl)methanone] it is 500 to 1000 nM.
The figure for `COCCc1nc(C)c(C(=O)N2CCc3[nH]cnc3[C@@H]2c2nc3ccccc3s2)o1` [Example 1730, (R)-(4-(benzo[d]thiazol-2-yl)-1,4,6,7-tetrahydro-5H-imidazo[4,5-c]pyridin-5-yl)(2-(2-methoxyethyl)-4-methyloxazol-5-yl)methanone] is greater than 5000 nM; for `Cn1nc(C(F)F)cc1C(=O)N1CCc2[nH]cnc2[C@H]1c1nc2c(F)cccc2s1` [Example 1731, (S)-(3-(difluoromethyl)-1-methyl-1H-pyrazol-5-yl)(4-(4-fluorobenzo[d]thiazol-2-yl)-6,7-dihydro-1H-imidazo[4,5-c]pyridin-5(4H)-yl)methanone] it is less than 500 nM; for `Cn1nc(C(F)F)cc1C(=O)N1CCc2[nH]cnc2[C@@H]1c1nc2c(F)cccc2s1` [Example 1732, (R)-(3-(difluoromethyl)-1-methyl-1H-pyrazol-5-yl)(4-(4-fluorobenzo[d]thiazol-2-yl)-6,7-dihydro-1H-imidazo[4,5-c]pyridin-5(4H)-yl)methanone] it is 1000 to 5000 nM.
With `Cn1ncc(Cl)c1C(=O)N1CCc2[nH]cnc2[C@H]1c1nc2c(F)cccc2s1` [Example 1733], the AC50 lay in the range of 500 to 1000 nM.
Consider `Cn1ncc(Cl)c1C(=O)N1CCc2[nH]cnc2[C@@H]1c1nc2c(F)cccc2s1` [Example 1734, (R)-(4-chloro-1-methyl-1H-pyrazol-5-yl)(4-(4-fluorobenzo[d]thiazol-2-yl)-6,7-dihydro-1H-imidazo[4,5-c]pyridin-5(4H)-yl)methanone], for which the AC50 is 500 to 1000 nM.
For `O=C(c1ccnn1C1CC1)N1CCc2[nH]cnc2[C@H]1c1nc2c(F)cccc2s1` [Example 1735], the AC50 is less than 500 nM.
The figure for `O=C(c1ccnn1C1CC1)N1CCc2[nH]cnc2[C@@H]1c1nc2c(F)cccc2s1` [Example 1736, (R)-(1-cyclopropyl-1H-pyrazol-5-yl)(4-(4-fluorobenzo[d]thiazol-2-yl)-6,7-dihydro-1H-imidazo[4,5-c]pyridin-5(4H)-yl)methanone] is 1000 to 5000 nM; for `O=C(c1ccnn1CC(F)(F)F)N1CCc2[nH]cnc2[C@H]1c1nc2c(F)cccc2s1` [Example 1737, (S)-(4-(4-fluorobenzo[d]thiazol-2-yl)-6,7-dihydro-1H-imidazo[4,5-c]pyridin-5(4H)-yl)(1-(2,2,2-trifluoroethyl)-1H-pyrazol-5-yl)methanone] it is less than 500 nM.
In the case of `O=C(c1ccnn1CC(F)(F)F)N1CCc2[nH]cnc2[C@@H]1c1nc2c(F)cccc2s1` [Example 1738, (R)-(4-(4-fluorobenzo[d]thiazol-2-yl)-6,7-dihydro-1H-imidazo[4,5-c]pyridin-5(4H)-yl)(1-(2,2,2-trifluoroethyl)-1H-pyrazol-5-yl)methanone] it was 1000 to 5000 nM; in that of `O=C(c1ccnn1C(F)F)N1CCc2[nH]cnc2[C@H]1c1nc2c(F)cccc2s1` [Example 1739], less than 500 nM.

The term AC50 denotes the midpoint of the concentration-response curve, whichever way the signal moves.
